The source made the active and inactive calls.
Biological target: T1, ATP-dependent RNA helicase DDX1 (Homo sapiens, UniProt Q92499)
T1 sequence (Q92499 whole entry): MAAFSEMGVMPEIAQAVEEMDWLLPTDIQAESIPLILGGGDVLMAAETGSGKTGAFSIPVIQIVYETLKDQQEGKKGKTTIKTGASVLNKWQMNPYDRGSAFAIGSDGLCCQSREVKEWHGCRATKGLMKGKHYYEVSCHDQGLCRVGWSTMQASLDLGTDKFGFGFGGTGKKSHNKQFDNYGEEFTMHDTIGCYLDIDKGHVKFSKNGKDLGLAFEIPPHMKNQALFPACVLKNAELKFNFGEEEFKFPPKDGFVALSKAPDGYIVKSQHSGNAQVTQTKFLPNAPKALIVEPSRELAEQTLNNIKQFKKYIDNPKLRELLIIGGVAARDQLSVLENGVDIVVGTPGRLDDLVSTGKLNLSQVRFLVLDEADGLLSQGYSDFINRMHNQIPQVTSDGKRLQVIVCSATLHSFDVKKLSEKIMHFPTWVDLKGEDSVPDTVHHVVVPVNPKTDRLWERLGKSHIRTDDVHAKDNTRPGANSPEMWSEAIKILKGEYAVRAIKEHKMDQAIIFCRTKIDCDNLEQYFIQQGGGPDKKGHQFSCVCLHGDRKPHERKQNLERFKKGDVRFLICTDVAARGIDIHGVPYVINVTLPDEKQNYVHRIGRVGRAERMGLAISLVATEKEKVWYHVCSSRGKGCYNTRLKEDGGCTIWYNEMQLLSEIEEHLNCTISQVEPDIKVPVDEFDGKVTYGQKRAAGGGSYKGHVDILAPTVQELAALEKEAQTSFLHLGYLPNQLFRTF
Conditions: not given
Further: in the data inactive means no Kd found up to 30 µM.

SMILES	Kd
CNC(=O)CN1CCC(Oc2cc3c(Nc4cccc(Cl)c4F)ncnc3cc2OC)CC1 [SAPITINIB]	> 30 µM (inactive)
CN1CCC(CNc2ccc3ncc(-c4cccc(OC(F)(F)F)c4)n3n2)CC1 [SGI-1776]	> 30 µM (inactive)
C[C@@H]1CN(Cc2ccc(F)cc2)[C@@H](C)CN1C(=O)c1cc2c(C(=O)C(=O)N(C)C)cn(C)c2cc1Cl [TALMAPIMOD]	> 30 µM (inactive)

Biological target: Bone morphogenetic protein receptor type-1B (Homo sapiens, UniProt O00238)
Conditions: not given

SMILES	Kd
CNC(=O)CN1CCC(Oc2cc3c(Nc4cccc(Cl)c4F)ncnc3cc2OC)CC1 [SAPITINIB]	> 30 µM (inactive)
CN1CCC(CNc2ccc3ncc(-c4cccc(OC(F)(F)F)c4)n3n2)CC1 [SGI-1776]	> 30 µM (inactive)
C[C@@H]1CN(Cc2ccc(F)cc2)[C@@H](C)CN1C(=O)c1cc2c(C(=O)C(=O)N(C)C)cn(C)c2cc1Cl [TALMAPIMOD]	> 30 µM (inactive)

Biological target: Myosin light chain kinase, smooth muscle (Homo sapiens, UniProt Q15746)
Sequence (Q15746 whole entry): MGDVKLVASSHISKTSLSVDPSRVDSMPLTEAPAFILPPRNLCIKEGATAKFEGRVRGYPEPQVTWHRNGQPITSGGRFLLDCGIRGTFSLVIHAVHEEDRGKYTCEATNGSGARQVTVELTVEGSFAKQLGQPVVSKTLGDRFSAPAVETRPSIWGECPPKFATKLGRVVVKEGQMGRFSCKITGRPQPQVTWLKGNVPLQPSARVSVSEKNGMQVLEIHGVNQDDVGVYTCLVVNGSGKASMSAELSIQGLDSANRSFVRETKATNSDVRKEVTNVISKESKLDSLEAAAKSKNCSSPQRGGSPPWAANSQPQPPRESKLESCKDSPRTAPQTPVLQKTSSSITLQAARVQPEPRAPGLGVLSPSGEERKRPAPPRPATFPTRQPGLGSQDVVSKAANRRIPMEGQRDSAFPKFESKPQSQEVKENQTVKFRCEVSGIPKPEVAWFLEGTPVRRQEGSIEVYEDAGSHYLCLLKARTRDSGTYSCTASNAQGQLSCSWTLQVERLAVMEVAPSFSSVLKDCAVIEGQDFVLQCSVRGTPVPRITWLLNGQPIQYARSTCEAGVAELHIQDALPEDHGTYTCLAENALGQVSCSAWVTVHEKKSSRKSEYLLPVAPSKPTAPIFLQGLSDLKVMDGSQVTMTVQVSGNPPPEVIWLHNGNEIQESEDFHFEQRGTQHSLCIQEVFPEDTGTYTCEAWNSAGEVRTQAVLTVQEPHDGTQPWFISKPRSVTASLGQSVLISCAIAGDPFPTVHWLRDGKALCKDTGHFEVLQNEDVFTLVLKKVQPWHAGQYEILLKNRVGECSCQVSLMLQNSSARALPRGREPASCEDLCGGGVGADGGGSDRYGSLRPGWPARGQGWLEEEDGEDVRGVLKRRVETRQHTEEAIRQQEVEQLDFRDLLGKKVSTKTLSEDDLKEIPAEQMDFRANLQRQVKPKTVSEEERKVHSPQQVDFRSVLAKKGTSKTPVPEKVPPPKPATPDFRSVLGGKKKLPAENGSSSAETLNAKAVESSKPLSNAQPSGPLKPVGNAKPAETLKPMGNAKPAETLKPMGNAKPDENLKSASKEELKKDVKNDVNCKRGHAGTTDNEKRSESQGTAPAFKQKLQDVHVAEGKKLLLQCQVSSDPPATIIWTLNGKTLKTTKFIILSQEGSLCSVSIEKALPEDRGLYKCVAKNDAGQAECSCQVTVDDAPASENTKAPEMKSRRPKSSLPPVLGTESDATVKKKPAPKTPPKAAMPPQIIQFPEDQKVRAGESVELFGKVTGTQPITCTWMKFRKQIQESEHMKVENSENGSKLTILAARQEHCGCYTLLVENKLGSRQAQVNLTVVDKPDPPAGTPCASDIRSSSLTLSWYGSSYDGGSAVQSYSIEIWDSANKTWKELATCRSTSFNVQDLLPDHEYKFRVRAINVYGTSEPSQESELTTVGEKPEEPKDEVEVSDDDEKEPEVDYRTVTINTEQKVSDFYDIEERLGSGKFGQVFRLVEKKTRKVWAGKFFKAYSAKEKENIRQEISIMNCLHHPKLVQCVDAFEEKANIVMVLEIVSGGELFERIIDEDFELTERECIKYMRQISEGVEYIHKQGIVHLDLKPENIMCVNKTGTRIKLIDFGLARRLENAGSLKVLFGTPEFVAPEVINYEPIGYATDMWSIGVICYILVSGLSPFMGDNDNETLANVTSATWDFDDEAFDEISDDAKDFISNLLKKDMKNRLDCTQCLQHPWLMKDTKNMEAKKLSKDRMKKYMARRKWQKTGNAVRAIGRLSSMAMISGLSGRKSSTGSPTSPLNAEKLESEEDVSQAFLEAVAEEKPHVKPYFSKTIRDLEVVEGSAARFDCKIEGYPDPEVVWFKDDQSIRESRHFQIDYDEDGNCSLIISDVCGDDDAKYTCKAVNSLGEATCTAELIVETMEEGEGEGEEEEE
Conditions: not given

SMILES	Kd
CNC(=O)CN1CCC(Oc2cc3c(Nc4cccc(Cl)c4F)ncnc3cc2OC)CC1 [SAPITINIB]	> 30 µM (inactive)
CN1CCC(CNc2ccc3ncc(-c4cccc(OC(F)(F)F)c4)n3n2)CC1 [SGI-1776]	> 30 µM (inactive)
C[C@@H]1CN(Cc2ccc(F)cc2)[C@@H](C)CN1C(=O)c1cc2c(C(=O)C(=O)N(C)C)cn(C)c2cc1Cl [TALMAPIMOD]	> 30 µM (inactive)

Biological target: T2, Acyl-CoA dehydrogenase family member 11 (Homo sapiens, UniProt Q709F0)
T2 sequence (Q709F0 whole entry): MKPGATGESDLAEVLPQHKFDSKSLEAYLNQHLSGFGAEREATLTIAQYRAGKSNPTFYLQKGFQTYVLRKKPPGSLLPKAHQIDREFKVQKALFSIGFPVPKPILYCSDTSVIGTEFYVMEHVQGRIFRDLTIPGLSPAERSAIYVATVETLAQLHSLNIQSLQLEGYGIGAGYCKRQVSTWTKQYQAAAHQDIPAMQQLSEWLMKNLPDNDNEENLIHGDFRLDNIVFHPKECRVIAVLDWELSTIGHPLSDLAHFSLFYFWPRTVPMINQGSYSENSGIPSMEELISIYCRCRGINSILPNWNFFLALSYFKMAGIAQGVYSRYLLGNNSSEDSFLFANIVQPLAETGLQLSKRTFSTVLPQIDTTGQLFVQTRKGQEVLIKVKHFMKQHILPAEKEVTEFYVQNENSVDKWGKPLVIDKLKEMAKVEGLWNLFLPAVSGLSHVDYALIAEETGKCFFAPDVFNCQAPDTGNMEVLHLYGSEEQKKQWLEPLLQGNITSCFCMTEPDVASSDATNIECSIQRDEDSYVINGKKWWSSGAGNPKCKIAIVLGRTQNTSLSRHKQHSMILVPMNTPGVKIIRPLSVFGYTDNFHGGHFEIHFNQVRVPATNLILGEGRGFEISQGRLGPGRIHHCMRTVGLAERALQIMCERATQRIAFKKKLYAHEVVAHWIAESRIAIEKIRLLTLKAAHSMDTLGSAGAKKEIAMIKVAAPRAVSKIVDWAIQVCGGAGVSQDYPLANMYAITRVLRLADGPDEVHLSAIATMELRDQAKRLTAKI
Conditions: not given

SMILES	Kd
CNC(=O)CN1CCC(Oc2cc3c(Nc4cccc(Cl)c4F)ncnc3cc2OC)CC1 [SAPITINIB]	> 30 µM (inactive)
CN1CCC(CNc2ccc3ncc(-c4cccc(OC(F)(F)F)c4)n3n2)CC1 [SGI-1776]	> 30 µM (inactive)
C[C@@H]1CN(Cc2ccc(F)cc2)[C@@H](C)CN1C(=O)c1cc2c(C(=O)C(=O)N(C)C)cn(C)c2cc1Cl [TALMAPIMOD]	> 30 µM (inactive)

Biological target: RAC-gamma serine/threonine-protein kinase (Homo sapiens, UniProt Q9Y243)
Sequence (Q9Y243 whole entry): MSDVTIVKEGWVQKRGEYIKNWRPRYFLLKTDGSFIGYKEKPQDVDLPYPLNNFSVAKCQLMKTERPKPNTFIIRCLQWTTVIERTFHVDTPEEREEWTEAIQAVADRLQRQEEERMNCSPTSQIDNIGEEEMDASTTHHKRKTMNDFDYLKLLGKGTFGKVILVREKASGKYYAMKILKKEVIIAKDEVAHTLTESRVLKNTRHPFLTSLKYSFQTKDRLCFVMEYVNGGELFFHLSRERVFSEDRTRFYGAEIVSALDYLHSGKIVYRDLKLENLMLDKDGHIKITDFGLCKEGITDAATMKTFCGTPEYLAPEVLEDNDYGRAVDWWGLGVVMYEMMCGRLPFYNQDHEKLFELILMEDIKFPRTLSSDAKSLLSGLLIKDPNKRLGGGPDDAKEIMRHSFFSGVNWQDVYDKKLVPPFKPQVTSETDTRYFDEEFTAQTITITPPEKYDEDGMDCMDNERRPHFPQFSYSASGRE
Conditions: not given

SMILES	Kd
CNC(=O)CN1CCC(Oc2cc3c(Nc4cccc(Cl)c4F)ncnc3cc2OC)CC1 [SAPITINIB]	> 30 µM (inactive)
CN1CCC(CNc2ccc3ncc(-c4cccc(OC(F)(F)F)c4)n3n2)CC1 [SGI-1776]	> 30 µM (inactive)
C[C@@H]1CN(Cc2ccc(F)cc2)[C@@H](C)CN1C(=O)c1cc2c(C(=O)C(=O)N(C)C)cn(C)c2cc1Cl [TALMAPIMOD]	> 30 µM (inactive)

Biological target: Mitogen-activated protein kinase kinase kinase 20 (Homo sapiens, UniProt Q9NYL2)
Conditions: not given

SMILES	Kd
CNC(=O)CN1CCC(Oc2cc3c(Nc4cccc(Cl)c4F)ncnc3cc2OC)CC1 [SAPITINIB]	> 30 µM (inactive)
CN1CCC(CNc2ccc3ncc(-c4cccc(OC(F)(F)F)c4)n3n2)CC1 [SGI-1776]	> 30 µM (inactive)
C[C@@H]1CN(Cc2ccc(F)cc2)[C@@H](C)CN1C(=O)c1cc2c(C(=O)C(=O)N(C)C)cn(C)c2cc1Cl [TALMAPIMOD]	> 30 µM (inactive)

Biological target: T3, General transcription and DNA repair factor IIH helicase subunit XPD (Homo sapiens, UniProt P18074)
T3 sequence (P18074 whole entry): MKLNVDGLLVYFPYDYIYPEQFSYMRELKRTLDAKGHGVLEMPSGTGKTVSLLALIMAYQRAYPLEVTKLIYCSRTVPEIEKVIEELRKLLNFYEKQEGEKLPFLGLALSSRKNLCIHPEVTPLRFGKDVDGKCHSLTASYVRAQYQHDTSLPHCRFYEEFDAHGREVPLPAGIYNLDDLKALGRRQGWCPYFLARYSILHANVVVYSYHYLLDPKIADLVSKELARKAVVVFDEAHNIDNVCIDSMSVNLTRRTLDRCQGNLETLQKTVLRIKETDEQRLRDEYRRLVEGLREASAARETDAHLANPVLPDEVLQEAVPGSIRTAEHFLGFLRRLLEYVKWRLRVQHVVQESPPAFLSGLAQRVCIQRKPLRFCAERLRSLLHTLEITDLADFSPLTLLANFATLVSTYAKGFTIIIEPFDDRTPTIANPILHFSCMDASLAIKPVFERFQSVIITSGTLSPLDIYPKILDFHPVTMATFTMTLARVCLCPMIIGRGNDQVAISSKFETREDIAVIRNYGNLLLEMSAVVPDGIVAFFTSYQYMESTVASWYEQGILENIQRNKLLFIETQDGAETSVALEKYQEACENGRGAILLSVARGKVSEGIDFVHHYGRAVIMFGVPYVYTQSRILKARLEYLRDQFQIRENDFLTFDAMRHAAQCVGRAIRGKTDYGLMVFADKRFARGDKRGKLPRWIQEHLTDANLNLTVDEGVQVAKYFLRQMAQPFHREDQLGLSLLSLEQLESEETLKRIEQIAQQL
Conditions: read-out: Kd apparent; k-562, colo 205, sk-n-be(2) and mv-4-11

SMILES	Kd
CNC(=O)CN1CCC(Oc2cc3c(Nc4cccc(Cl)c4F)ncnc3cc2OC)CC1 [SAPITINIB]	> 30 µM (inactive)
CN1CCC(CNc2ccc3ncc(-c4cccc(OC(F)(F)F)c4)n3n2)CC1 [SGI-1776]	> 30 µM (inactive)
C[C@@H]1CN(Cc2ccc(F)cc2)[C@@H](C)CN1C(=O)c1cc2c(C(=O)C(=O)N(C)C)cn(C)c2cc1Cl [TALMAPIMOD]	> 30 µM (inactive)

Biological target: U5 small nuclear ribonucleoprotein 200 kDa helicase (Homo sapiens, UniProt O75643)
Sequence (O75643 whole entry): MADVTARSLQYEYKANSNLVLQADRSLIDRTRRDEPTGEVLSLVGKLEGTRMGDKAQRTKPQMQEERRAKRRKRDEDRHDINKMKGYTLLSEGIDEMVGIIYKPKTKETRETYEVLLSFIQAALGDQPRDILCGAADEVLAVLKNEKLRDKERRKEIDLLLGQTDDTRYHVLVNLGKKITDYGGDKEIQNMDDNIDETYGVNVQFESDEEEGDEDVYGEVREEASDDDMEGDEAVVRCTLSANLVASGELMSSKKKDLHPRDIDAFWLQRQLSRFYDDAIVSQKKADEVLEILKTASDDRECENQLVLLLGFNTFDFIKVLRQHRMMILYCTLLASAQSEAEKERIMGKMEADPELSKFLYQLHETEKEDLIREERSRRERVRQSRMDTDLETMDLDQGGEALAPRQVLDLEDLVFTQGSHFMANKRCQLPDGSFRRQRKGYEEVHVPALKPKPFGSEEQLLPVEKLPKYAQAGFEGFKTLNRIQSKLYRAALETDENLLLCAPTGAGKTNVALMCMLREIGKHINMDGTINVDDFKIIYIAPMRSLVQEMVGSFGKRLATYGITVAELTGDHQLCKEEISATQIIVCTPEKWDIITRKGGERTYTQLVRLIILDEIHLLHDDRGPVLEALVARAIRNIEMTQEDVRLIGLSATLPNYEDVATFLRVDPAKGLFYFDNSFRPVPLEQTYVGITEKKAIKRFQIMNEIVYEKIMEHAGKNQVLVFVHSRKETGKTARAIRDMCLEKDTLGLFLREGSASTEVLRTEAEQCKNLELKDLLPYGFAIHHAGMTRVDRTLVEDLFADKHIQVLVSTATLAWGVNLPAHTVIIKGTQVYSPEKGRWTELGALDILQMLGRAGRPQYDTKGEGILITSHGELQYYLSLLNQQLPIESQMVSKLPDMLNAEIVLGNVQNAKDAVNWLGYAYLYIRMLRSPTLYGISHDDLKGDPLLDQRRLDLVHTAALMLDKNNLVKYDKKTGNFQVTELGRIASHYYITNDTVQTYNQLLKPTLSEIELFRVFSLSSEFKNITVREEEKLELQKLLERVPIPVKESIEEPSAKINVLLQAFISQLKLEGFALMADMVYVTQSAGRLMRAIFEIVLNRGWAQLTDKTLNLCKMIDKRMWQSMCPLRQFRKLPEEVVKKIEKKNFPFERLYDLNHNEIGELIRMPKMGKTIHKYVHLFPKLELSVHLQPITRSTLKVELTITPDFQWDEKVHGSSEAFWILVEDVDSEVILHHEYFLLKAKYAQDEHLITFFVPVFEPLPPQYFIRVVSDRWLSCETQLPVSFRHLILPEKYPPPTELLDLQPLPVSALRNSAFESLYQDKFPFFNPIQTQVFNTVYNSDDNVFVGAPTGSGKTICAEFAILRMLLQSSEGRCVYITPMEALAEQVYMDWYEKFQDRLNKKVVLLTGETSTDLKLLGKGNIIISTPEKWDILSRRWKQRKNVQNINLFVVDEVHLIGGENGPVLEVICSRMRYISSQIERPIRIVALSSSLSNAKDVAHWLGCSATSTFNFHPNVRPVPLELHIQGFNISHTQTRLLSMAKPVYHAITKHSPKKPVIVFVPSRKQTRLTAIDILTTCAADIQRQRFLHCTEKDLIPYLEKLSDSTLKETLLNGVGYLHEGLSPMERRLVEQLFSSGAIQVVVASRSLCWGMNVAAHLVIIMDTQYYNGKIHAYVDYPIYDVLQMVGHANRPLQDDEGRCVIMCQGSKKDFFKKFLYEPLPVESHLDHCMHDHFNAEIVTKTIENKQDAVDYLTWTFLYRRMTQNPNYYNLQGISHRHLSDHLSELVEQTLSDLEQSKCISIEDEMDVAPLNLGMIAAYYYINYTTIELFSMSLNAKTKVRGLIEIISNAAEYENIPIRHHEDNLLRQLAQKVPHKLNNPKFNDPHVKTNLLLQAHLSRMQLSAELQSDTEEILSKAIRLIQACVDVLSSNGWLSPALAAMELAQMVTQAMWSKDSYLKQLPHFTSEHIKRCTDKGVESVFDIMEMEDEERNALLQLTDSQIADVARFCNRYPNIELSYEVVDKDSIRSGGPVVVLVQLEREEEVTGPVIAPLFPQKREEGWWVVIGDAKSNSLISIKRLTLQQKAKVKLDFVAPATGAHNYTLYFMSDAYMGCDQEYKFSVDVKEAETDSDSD
Conditions: not given

SMILES	Kd
CNC(=O)CN1CCC(Oc2cc3c(Nc4cccc(Cl)c4F)ncnc3cc2OC)CC1 [SAPITINIB]	> 30 µM (inactive)
CN1CCC(CNc2ccc3ncc(-c4cccc(OC(F)(F)F)c4)n3n2)CC1 [SGI-1776]	> 30 µM (inactive)
C[C@@H]1CN(Cc2ccc(F)cc2)[C@@H](C)CN1C(=O)c1cc2c(C(=O)C(=O)N(C)C)cn(C)c2cc1Cl [TALMAPIMOD]	> 30 µM (inactive)

Biological target: Mitogen-activated protein kinase 1 (Homo sapiens, UniProt P28482)
Sequence (P28482 whole entry): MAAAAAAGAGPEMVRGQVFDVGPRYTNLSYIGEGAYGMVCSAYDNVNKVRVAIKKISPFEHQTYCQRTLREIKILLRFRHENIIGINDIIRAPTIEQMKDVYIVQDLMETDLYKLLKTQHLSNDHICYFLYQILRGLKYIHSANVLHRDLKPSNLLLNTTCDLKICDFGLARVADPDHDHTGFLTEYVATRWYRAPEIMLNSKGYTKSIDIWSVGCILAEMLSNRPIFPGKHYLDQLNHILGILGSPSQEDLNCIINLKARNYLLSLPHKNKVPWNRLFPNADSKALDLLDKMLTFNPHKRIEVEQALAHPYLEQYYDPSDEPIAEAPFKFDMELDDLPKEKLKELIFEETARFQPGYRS
Conditions: not given

SMILES	Kd
CNC(=O)CN1CCC(Oc2cc3c(Nc4cccc(Cl)c4F)ncnc3cc2OC)CC1 [SAPITINIB]	> 30 µM (inactive)
CN1CCC(CNc2ccc3ncc(-c4cccc(OC(F)(F)F)c4)n3n2)CC1 [SGI-1776]	> 30 µM (inactive)
C[C@@H]1CN(Cc2ccc(F)cc2)[C@@H](C)CN1C(=O)c1cc2c(C(=O)C(=O)N(C)C)cn(C)c2cc1Cl [TALMAPIMOD]	> 30 µM (inactive)

Source: ChEMBL document CHEMBL3991601, “The target landscape of clinical kinase drugs” (Science, 2017)
